In patent US12492173B2, “Herbicidal substituted N-tetrazolyl aryl carboxamides” (Bayer Aktiengesellschaft, priority 2019, dated 2025):

What was measured:
Type in all cases: in vivo
Abutilon theophrasti = test: Pre-emergence herbicidal action, ABUTH; settings: dosage 320 g/ha, scored visually after 3 weeks vs untreated controls (100% = plants have died)
Outline: (§1)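 Weed seeds sown in sandy loam and covered; WP or EC formulations applied to soil surface as aqueous suspension or emulsion at 600 to 800 l/ha with 0.2% wetting agent. Greenhouse-grown, with damage scored visually after 3 weeks versus untreated controls (0% = like control, 100% = plants dead).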

Veronica persica = test: Pre-emergence herbicidal action, VERPE; settings: dosage 320 g/ha, scored visually after 3 weeks vs untreated controls (100% = plants have died)
Outline: as §1

Amaranthus retroflexus = test: Post-emergence herbicidal action, AMARE; parameters: key: % herbicidal action vs untreated; 100 = plants died, 0 = like control
Outline: (§2)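 Percent herbicidal effect was rated visually about 3 weeks after treatment, relative to untreated plants (0% = like control, 100% = dead). Compounds, formulated as WP or EC, went on as aqueous spray (600–800 l/ha, 0.2% wetting agent) to one-leaf-stage plants 2–3 weeks post-sowing in sandy loam.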

Echinochloa crus-galli = test: Post-emergence herbicidal action, ECHCG; parameters: key: % herbicidal action vs untreated; 100 = plants died, 0 = like control
Outline: as §2

Matricaria inodora = test: Post-emergence herbicidal action, MATIN; parameters: key: % herbicidal action vs untreated; 100 = plants died, 0 = like control
Outline: as §2

Pharbitis purpurea = test: Post-emergence herbicidal action, PHBPU
Outline: as §2

CCn1nnnc1NC(=O)c1ccc(C(F)(F)F)c(CS(C)(=O)=O)c1OC [Example 2-136]
herbicidal activity ABUTH (Abutilon theophrasti): 100% | herbicidal activity VERPE (Veronica persica): 100% | herbicidal action AMARE (Amaranthus retroflexus; Dosage 80 g/ha): 100 | herbicidal action ECHCG (Echinochloa crus-galli; Dosage 80 g/ha): 100 | herbicidal action MATIN (Matricaria inodora; Dosage 80 g/ha): 100 | herbicidal action PHBPU (Pharbitis purpurea; Dosage 80 g/ha): 90

CCn1nnnc1NC(=O)c1ccc(C(F)(F)F)c(CSC)c1SC [Example 2-161]
herbicidal activity ABUTH (Abutilon theophrasti): 100% | herbicidal activity VERPE (Veronica persica): 100% | herbicidal action AMARE (Amaranthus retroflexus; post-emergence, dosage 80 g/ha): 100% | herbicidal action ECHCG (Echinochloa crus-galli; post-emergence, dosage 80 g/ha): 90% | herbicidal action MATIN (Matricaria inodora; post-emergence, dosage 80 g/ha): 100% | herbicidal action PHBPU (Pharbitis purpurea; post-emergence, dosage 80 g/ha): 90%

CCn1nnnc1NC(=O)c1ccc(C(F)(F)F)c(CS(C)(=O)=O)c1SC [Example 2-163]
herbicidal activity ABUTH (Abutilon theophrasti): 100% | herbicidal activity VERPE (Veronica persica): 100% | herbicidal action AMARE (Amaranthus retroflexus; Dosage 80 g/ha): 100 | herbicidal action ECHCG (Echinochloa crus-galli; Dosage 80 g/ha): 100 | herbicidal action MATIN (Matricaria inodora; Dosage 80 g/ha): 100 | herbicidal action PHBPU (Pharbitis purpurea; Dosage 80 g/ha): 90

CCn1nnnc1NC(=O)c1ccc(C(F)(F)F)c(CSC)c1Br [Example 2-380]
herbicidal activity ABUTH (Abutilon theophrasti): 100% | herbicidal activity VERPE (Veronica persica): 100% | herbicidal action AMARE (Amaranthus retroflexus; post-emergence, dosage 80 g/ha): 80% | herbicidal action ECHCG (Echinochloa crus-galli; post-emergence, dosage 80 g/ha): 90% | herbicidal action MATIN (Matricaria inodora; post-emergence, dosage 80 g/ha): 100% | herbicidal action PHBPU (Pharbitis purpurea; post-emergence, dosage 80 g/ha): 90%

CCn1nnnc1NC(=O)c1ccc(C(F)(F)F)c(C[S+](C)[O-])c1Br (stereo not drawn) [Example 2-381]
herbicidal activity ABUTH (Abutilon theophrasti): 100% | herbicidal activity VERPE (Veronica persica): 100% | herbicidal action AMARE (Amaranthus retroflexus; post-emergence, dosage 80 g/ha): 90% | herbicidal action ECHCG (Echinochloa crus-galli; post-emergence, dosage 80 g/ha): 90% | herbicidal action MATIN (Matricaria inodora; post-emergence, dosage 80 g/ha): 90% | herbicidal action PHBPU (Pharbitis purpurea; post-emergence, dosage 80 g/ha): 100%

CCn1nnnc1NC(=O)c1ccc(C(F)(F)F)c(CS(C)(=O)=O)c1Br [Example 2-382]
herbicidal activity ABUTH (Abutilon theophrasti): 100% | herbicidal activity VERPE (Veronica persica): 100% | herbicidal action AMARE (Amaranthus retroflexus; Dosage 80 g/ha): 90 | herbicidal action ECHCG (Echinochloa crus-galli; Dosage 80 g/ha): 90 | herbicidal action MATIN (Matricaria inodora; Dosage 80 g/ha): 100 | herbicidal action PHBPU (Pharbitis purpurea; Dosage 80 g/ha): 100

CCSCc1c(C(F)(F)F)ccc(C(=O)Nc2nnnn2CC)c1Br [Example 2-383]
herbicidal activity ABUTH (Abutilon theophrasti): 100% | herbicidal activity VERPE (Veronica persica): 100% | herbicidal action AMARE (Amaranthus retroflexus; post-emergence, dosage 80 g/ha): 100% | herbicidal action ECHCG (Echinochloa crus-galli; post-emergence, dosage 80 g/ha): 90% | herbicidal action MATIN (Matricaria inodora; post-emergence, dosage 80 g/ha): 100% | herbicidal action PHBPU (Pharbitis purpurea; post-emergence, dosage 80 g/ha): 90%

CCCn1nnnc1NC(=O)c1ccc(C(F)(F)F)c(CS(=O)(=O)CC)c1C [Example 3-88]
herbicidal activity ABUTH (Abutilon theophrasti): 100% | herbicidal activity VERPE (Veronica persica): 100% | herbicidal action AMARE (Amaranthus retroflexus; Dosage 80 g/ha): 80 | herbicidal action ECHCG (Echinochloa crus-galli; Dosage 80 g/ha): 90 | herbicidal action MATIN (Matricaria inodora; Dosage 80 g/ha): 90 | herbicidal action PHBPU (Pharbitis purpurea; Dosage 80 g/ha): 90

CCCn1nnnc1NC(=O)c1ccc(C(F)F)c(CSC)c1C [Example 3-107]
herbicidal activity ABUTH (Abutilon theophrasti): 100% | herbicidal activity VERPE (Veronica persica): 100% | herbicidal action AMARE (Amaranthus retroflexus; Dosage 80 g/ha): 90 | herbicidal action ECHCG (Echinochloa crus-galli; Dosage 80 g/ha): 90 | herbicidal action MATIN (Matricaria inodora; Dosage 80 g/ha): 90 | herbicidal action PHBPU (Pharbitis purpurea; Dosage 80 g/ha): 80

CCCn1nnnc1NC(=O)c1ccc(C(F)(F)F)c(CSC)c1OC [Example 3-134]
herbicidal activity ABUTH (Abutilon theophrasti): 100% | herbicidal activity VERPE (Veronica persica): 100% | herbicidal action AMARE (Amaranthus retroflexus; Dosage 80 g/ha): 100 | herbicidal action ECHCG (Echinochloa crus-galli; Dosage 80 g/ha): 100 | herbicidal action MATIN (Matricaria inodora; Dosage 80 g/ha): 100 | herbicidal action PHBPU (Pharbitis purpurea; Dosage 80 g/ha): 100

CCCn1nnnc1NC(=O)c1ccc(C(F)(F)F)c(CSC)c1Cl [Example 3-296]
herbicidal activity ABUTH (Abutilon theophrasti): 100% | herbicidal activity VERPE (Veronica persica): 100% | herbicidal action AMARE (Amaranthus retroflexus; Dosage 80 g/ha): 100 | herbicidal action ECHCG (Echinochloa crus-galli; Dosage 80 g/ha): 100 | herbicidal action MATIN (Matricaria inodora; Dosage 80 g/ha): 100 | herbicidal action PHBPU (Pharbitis purpurea; Dosage 80 g/ha): 90

CCCn1nnnc1NC(=O)c1ccc(C(F)(F)F)c(C[S+](C)[O-])c1Cl (stereo not drawn) [Example 3-297]
herbicidal activity ABUTH (Abutilon theophrasti): 100% | herbicidal activity VERPE (Veronica persica): 100% | herbicidal action AMARE (Amaranthus retroflexus; post-emergence, dosage 80 g/ha): 100% | herbicidal action ECHCG (Echinochloa crus-galli; post-emergence, dosage 80 g/ha): 80% | herbicidal action MATIN (Matricaria inodora; post-emergence, dosage 80 g/ha): 100% | herbicidal action PHBPU (Pharbitis purpurea; post-emergence, dosage 80 g/ha): 90%

CCCn1nnnc1NC(=O)c1ccc(C(F)(F)F)c(CSCC)c1Cl [Example 3-299]
herbicidal activity ABUTH (Abutilon theophrasti): 100% | herbicidal activity VERPE (Veronica persica): 100% | herbicidal action AMARE (Amaranthus retroflexus; Dosage 80 g/ha): 90 | herbicidal action ECHCG (Echinochloa crus-galli; Dosage 80 g/ha): 90 | herbicidal action MATIN (Matricaria inodora; Dosage 80 g/ha): 100 | herbicidal action PHBPU (Pharbitis purpurea; Dosage 80 g/ha): 90

CCCn1nnnc1NC(=O)c1ccc(C(F)F)c(CSC)c1Cl [Example 3-320]
herbicidal activity ABUTH (Abutilon theophrasti): 100% | herbicidal activity VERPE (Veronica persica): 100% | herbicidal action AMARE (Amaranthus retroflexus; Dosage 80 g/ha): 80 | herbicidal action ECHCG (Echinochloa crus-galli; Dosage 80 g/ha): 100 | herbicidal action MATIN (Matricaria inodora; Dosage 80 g/ha): 100 | herbicidal action PHBPU (Pharbitis purpurea; Dosage 80 g/ha): 90

CCCn1nnnc1NC(=O)c1ccc(C(F)(F)F)c(C[S+](C)[O-])c1Br (stereo not drawn) [Example 3-381]
herbicidal activity ABUTH (Abutilon theophrasti): 100% | herbicidal activity VERPE (Veronica persica): 100% | herbicidal action AMARE (Amaranthus retroflexus; post-emergence, dosage 80 g/ha): 90% | herbicidal action ECHCG (Echinochloa crus-galli; post-emergence, dosage 80 g/ha): 90% | herbicidal action MATIN (Matricaria inodora; post-emergence, dosage 80 g/ha): 90% | herbicidal action PHBPU (Pharbitis purpurea; post-emergence, dosage 80 g/ha): 100%

CCCn1nnnc1NC(=O)c1ccc(C(F)(F)F)c(CSCC)c1Br [Example 3-383]
herbicidal activity ABUTH (Abutilon theophrasti): 100% | herbicidal activity VERPE (Veronica persica): 100% | herbicidal action AMARE (Amaranthus retroflexus; Dosage 80 g/ha): 90 | herbicidal action ECHCG (Echinochloa crus-galli; Dosage 80 g/ha): 90 | herbicidal action MATIN (Matricaria inodora; Dosage 80 g/ha): 100 | herbicidal action PHBPU (Pharbitis purpurea; Dosage 80 g/ha): 90

CCCn1nnnc1NC(=O)c1ccc(C(F)(F)F)c(CS(=O)(=O)CC)c1Br [Example 3-385]
herbicidal activity ABUTH (Abutilon theophrasti): 100% | herbicidal activity VERPE (Veronica persica): 100% | herbicidal action AMARE (Amaranthus retroflexus; Dosage 80 g/ha): 90 | herbicidal action ECHCG (Echinochloa crus-galli; Dosage 80 g/ha): 100 | herbicidal action MATIN (Matricaria inodora; Dosage 80 g/ha): 90 | herbicidal action PHBPU (Pharbitis purpurea; Dosage 80 g/ha): 90
